Like-named read-outs stand apart in the source and are kept apart here.
Tests used:
[1] = test system: HIV-1 (IIIB); test: Antiviral assay in MT-4 cells; assay type: cell-based; conditions: HIV-1 IIIB infected MT-4 cells, 5 days, Cell Titer Glo, read-out: MT4 EC50
Method in brief: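 MT-4 cells infected with a 1:250 dilution of HIV-1 IIIB stock were incubated with serially diluted (1:3) compound for 5 days at 37 °C. Viability read by Cell Titer Glo luminescence; EC50 is the concentration giving 50% decrease in signal, from sigmoidal dose-response fits.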

[2] = Cytotoxicity assay in MT-4 cells; assay type: cell-based; conditions: human, uninfected MT-4 cells, 5 days, Cell Titer Glo; read-out: CC50
Method in brief: (§1)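 Uninfected MT-4 cells were incubated with 1:3 serially diluted compound in RPMI/10% FBS for 5 days at 37° C. Viability was read by CellTiter-Glo luminescence, with 10 μM puromycin as the baseline cytotoxicity control. Values are the concentration giving a 50% decrease in luminescence, from sigmoidal dose-response fits.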

[3] = test system: pLai RLuc reporter virus; test: HIV MT-4 serum shift antiviral reporter assay; assay type: cell-based
Method in brief: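 MT-4 cells pre-infected with pLai RLuc virus for 2 h at 37 °C, then incubated 72 h at 37 °C with compound in medium (RPMI, 10% FBS) with or without 50% human serum; Renilla luminescence read. EC50 from sigmoidal fit; serum shift = EC50(HS/CCM)/EC50(CCM).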

[4] = Monkey PK after single-dose intravenous infusion; assay type: in vivo, monkeys; conditions: cynomolgus, monkeys, single-dose intravenous infusion for 30 minutes, plasma, read-out: Cyno half-life (converted)
Experimental: Test compound PK was determined in monkeys (Labcorp, Madison, Wis.) following a single-dose intravenous infusion for 30 minutes. The dosing vehicle was 10% N-methylpyrrolidone; 50% polyethylene glycol 300 and 40% water (pH 8.3) for intravenous administration in monkeys. Serial blood samples were collected at predose, 0.25, 0.48 (before end of infusion), 0.58, 0.75, 1, 1.5, 2, 4, 8, 12, 24, 48, 72, 96, 120, 144, and 168 hours postdose (based on start of infusion) and plasma test compound concentrations were quantified using an LC-MS/MS method.
Nonclinical plasma samples were prepared by addition of 200 μl cold acetonitrile/internal standard solution to 96-well plates containing 50 μl aliquots of each plasma sample. After protein precipitation, each of the supernatants (50 μl) were transferred to clean 96-well plates and diluted with 450 μl of water. The sample injection volume was 2 μl. Samples were analyzed by a multiple reaction monitoring LC-MS/MS method. LC-MS system consisted of a Cohesive LX-2 multiplex with two identical DIONEX UltiMate 3000 RS pumps, Hypersil Gold C18 HPLC column (50×2.1 mm, […]; Thermo Fisher Scientific), and the ABSciex QTRAP5500 Mass Spectrometer LC-MS/MS system. Chromatography was performed using 0.1% formic acid and 1% isopropyl alcohol in aqueous solution (MP A), and 0.1% formic acid and 1% isopropyl alcohol in acetonitrile (MP B).
Plasma PK parameters for test compounds in monkeys were estimated via noncompartmental analysis using the software program Phoenix WinNonlin, version 6.3 (Pharsight Corporation, Mountain View, Calif.). The following plasma PK parameters were estimated in nonclinical species (as appropriate): observed peak plasma concentration (Cmax), time to reach Cmax (Tmax), last quantifiable plasma concentration (Clast), tin, time of Clast (Tlast), area under the plasma concentration-time curve (AUC) from time 0 to Clast (AUClast), AUC from time 0 to infinity (AUCinf), CL, mean residence time (MRT), and volume of distribution at steady state (Vss).

[5] = test system: MT-4 cells; test: Cytotoxicity assay in MT-4 cells; assay type: cell-based; conditions: uninfected MT-4 cells, 5 days, Cell Titer Glo; read-out: CC50
Method in brief: as §1

[6] = Human immunodeficiency virus 1, IIIB, MT4, 120 h
[7] = Human immunodeficiency virus 1, 72 h, read-out: RLUC 50% HS (nM), HS/CCM: 50% human serum, 72 h, Renilla Glo
[8] = Human immunodeficiency virus 1, 72 h, read-out: RLUC CCM (nM), cell culture media (RPMI, 10% FBS), 72 h, Renilla Glo
[9] = read-out: RLUC 50% HS, HS/CCM: 50% human serum, 72 h, Renilla Glo
[10] = HS/CCM: 50% human serum, 72 h, Renilla Glo, read-out: RLUC 50% HS
[11] = cell culture media (RPMI, 10% FBS), 72 h, Renilla Glo, read-out: RLUC CCM

SMILES	EC50 [1, 6]	CC50 at 5 days [2]	EC50 [3, 7]	EC50 [3, 8]	half-life [4]	EC50 [1]	EC50 [3, 9]	CC50 [5]	EC50 [3, 10]	EC50 [3, 11]
C[C@@H]1C=C[C@H](C)N2CN1n1cc(C(=O)NCc3c(F)cc(F)cc3F)c(=O)c(O)c1C2=O [Example C24, (1S,2R,5S)-8-hydroxy-2,5-dimethyl-7,9-dioxo-N-(2,4,6-trifluorobenzyl)-2,5,7,9-tetrahydro-1,6-methanopyrido[1,2-b][1,2,5]triazonine-10-carboxamide]	0.98 nM	11400 nM	328 nM	0.44 nM	57 h	–	–	–	–	–
C[C@H]1C=C[C@H](C)N2CN1C(=O)c1c(O)c(=O)c(C(=O)NCc3c(F)cc(F)cc3F)cn12 [Example C25, (1S,2S,5S)-8-hydroxy-2,5-dimethyl-7,9-dioxo-N-(2,4,6-trifluorobenzyl)-2,5,7,9-tetrahydro-1,6-methanopyrido[1,2-b][1,2,5]triazonine-10-carboxamide]	–	17400 nM	–	0.47 nM	55 h	1 nM	68 nM	–	–	–
C[C@H]1CC[C@H](C)N2CN1C(=O)c1c(O)c(=O)c(C(=O)NCc3c(F)cc(F)cc3F)cn12 [Example C27, (1S,2R,5S)-8-hydroxy-2,5-dimethyl-7,9-dioxo-N-(2,4,6-trifluorobenzyl)-2,3,4,5,7,9-hexahydro-1,6-methanopyrido[1,2-b][1,2,5]triazonine-10-carboxamide]	1.3 nM	9550 nM	–	0.55 nM	48 h	–	594 nM	–	–	–
C[C@@H]1C=C[C@H](C)N2CN1n1cc(C(=O)NCc3ccc(F)cc3F)c(=O)c(O)c1C2=O [Example C29, (1S,2R,5S)—N-(2,4-difluorobenzyl)-8-hydroxy-2,5-dimethyl-7,9-dioxo-2,5,7,9-tetrahydro-1,6-methanopyrido[1,2-b][1,2,5]triazonine-10-carboxamide]	0.71 nM	18700 nM	169 nM	0.31 nM	32 h	–	–	–	–	–
C[C@H]1C=C[C@H](C)N2CN1C(=O)c1c(O)c(=O)c(C(=O)NCc3ccc(F)cc3F)cn12 [Example C30, (1S,2S,5S)-8-hydroxy-2,5-dimethyl-7,9-dioxo-N-(2,4-difluorobenzyl)-2,5,7,9-tetrahydro-1,6-methanopyrido[1,2-b][1,2,5]triazonine-10-carboxamide]	1.3 nM	35800 nM	29 nM	0.32 nM	6 h	–	–	–	–	–
C[C@H]1CC[C@H](C)N2CN1C(=O)c1c(O)c(=O)c(C(=O)NCc3ccc(F)cc3F)cn12 [Example C31, (1S,2S,5S)—N-(2,4-difluorobenzyl)-8-hydroxy-2,5-dimethyl-7,9-dioxo-2,3,4,5,7,9-hexahydro-1,6-methanopyrido[1,2-b][1,2,5]triazonine-10-carboxamide]	0.9 nM	7850 nM	328 nM	0.41 nM	9 h	–	–	–	–	–
C[C@H]1C=C[C@@H](CF)N2CN1C(=O)c1c(O)c(=O)c(C(=O)NCc3ccc(F)cc3F)cn12 [Example C44, (2S,5S)—N-(2,4-difluorobenzyl)-2-(fluoromethyl)-8-hydroxy-5-methyl-7,9-dioxo-2,5,7,9-tetrahydro-1,6-methanopyrido[1,2-b][1,2,5]triazonine-10-carboxamide]	1.2 nM	15000 nM	–	–	29 h	–	–	–	–	–
C[C@@H]1C=C[C@H](C)N2CN1n1cc(C(=O)NCc3ccc(F)c(Cl)c3F)c(=O)c(O)c1C2=O [Example C63, (1S,2R,5S)—N-(3-chloro-2,4-difluorobenzyl)-8-hydroxy-2,5-dimethyl-7,9-dioxo-2,5,7,9-tetrahydro-1,6-methanopyrido[1,2-b][1,2,5]triazonine-10-carboxamide]	–	–	–	–	110 h	–	–	–	–	–
C[C@H]1C=C[C@]2(CCOC2)N2CN1C(=O)c1c(O)c(=O)c(C(=O)NCc3c(F)cc(F)cc3F)cn12 [Example C84, (1′S,3S,5′S)-8′-hydroxy-5′-methyl-7′,9′-dioxo-N-(2,4,6-trifluorobenzyl)-4,5,7′,9′-tetrahydro-2H,5′H-spiro[furan-3,2′-[1,6]methanopyrido[1,2-b][1,2,5]triazonine]-10′-carboxamide]	–	–	–	–	–	0.6 nM	–	20500 nM	24.9 nM	0.26 nM
C[C@@H]1[C@H]2C[C@H]2[C@H](C)N2CN1n1cc(C(=O)NCc3c(F)cc(F)cc3F)c(=O)c(O)c1C2=O [Example C89, (1aS,2R,3R,11S,11aR)-8-hydroxy-2,11-dimethyl-7,9-dioxo-N-(2,4,6-trifluorobenzyl)-1a,2,7,9,11,11a-hexahydro-1H-3,10-methanocyclopropa[g]pyrido[1,2-b][1,2,5]triazonine-6-carboxamide]	–	–	–	–	–	1.1 nM	–	37200 nM	36.5 nM	1.09 nM
C[C@H]1C=CC(C)(C)N2CN1n1cc(C(=O)NCc3ccc(F)cc3F)c(=O)c(O)c1C2=O [Example C91, (1R,2S)—N-(2,4-difluorobenzyl)-8-hydroxy-2,5,5-trimethyl-7,9-dioxo-2,5,7,9-tetrahydro-1,6-methanopyrido[1,2-b][1,2,5]triazonine-10-carboxamide]	–	–	–	–	–	1.9 nM	–	31000 nM	195 nM	0.67 nM
C[C@H]1C=CC(C)(C)N2CN1n1cc(C(=O)NCc3ccc(F)cc3F)c(=O)c(O)c1C2=O [Example C92, (1S,2S)—N-(2,4-difluorobenzyl)-8-hydroxy-2,5,5-trimethyl-7,9-dioxo-2,5,7,9-tetrahydro-1,6-methanopyrido[1,2-b][1,2,5]triazonine-10-carboxamide]	–	–	–	–	–	1.5 nM	–	17500 nM	246 nM	0.67 nM
C[C@@H]1CCC(C)(C)N2CN1n1cc(C(=O)NCc3ccc(F)cc3F)c(=O)c(O)c1C2=O [Example C93, (1S,2R)—N-(2,4-difluorobenzyl)-8-hydroxy-2,5,5-trimethyl-7,9-dioxo-2,3,4,5,7,9-hexahydro-1,6-methanopyrido[1,2-b][1,2,5]triazonine-10-carboxamide]	–	–	–	–	–	16.9 nM	–	50000 nM	96.8 nM	1.15 nM
C[C@H]1CCC(C)(C)N2CN1n1cc(C(=O)NCc3ccc(F)cc3F)c(=O)c(O)c1C2=O [Example C94, (1R,2S)—N-(2,4-difluorobenzyl)-8-hydroxy-2,5,5-trimethyl-7,9-dioxo-2,3,4,5,7,9-hexahydro-1,6-methanopyrido[1,2-b][1,2,5]triazonine-10-carboxamide]	–	–	–	–	–	25.1 nM	–	50000 nM	361 nM	6.21 nM
C[C@H]1CCC(C)(C)N2CN1n1cc(C(=O)NCc3ccc(F)cc3F)c(=O)c(O)c1C2=O [Example C95, (1S,2S)—N-(2,4-difluorobenzyl)-8-hydroxy-2,5,5-trimethyl-7,9-dioxo-2,3,4,5,7,9-hexahydro-1,6-methanopyrido[1,2-b][1,2,5]triazonine-10-carboxamide]	12.3 nM	–	461 nM	2.52 nM	–	–	–	50000 nM	–	–
O=C(NCc1c(F)cc(F)cc1F)c1cn2c(c(O)c1=O)C(=O)N1CCCCN2C1 [Example C108, (1R)-8-hydroxy-7,9-dioxo-N-(2,4,6-trifluorobenzyl)-2,3,4,5,7,9-hexahydro-1,6-methanopyrido[1,2-b][1,2,5]triazonine-10-carboxamide]	–	–	–	–	–	3.3 nM	–	22900 nM	208 nM	0.98 nM
